Values quoted from earlier work as cited in patent US9999577B2, “Cream gels comprising at least one retinoid and benzoyl peroxide” (GALDERMA RESEARCH & DEVELOPMENT, priority 2006, dated 2018).
Like-named read-outs stand apart in the source and are kept apart here. Blank lines part the entries; values can stand above or below the compound they belong to.

Key:
[1] = not given; remark: listed apart in the source
[2] = for Decomposition time of benzoyl peroxide: 40° C.

Retinoid decomposition in presence of benzoyl peroxide formulation (during 24 hours): no decomposition
Compound: COc1ccc(-c2ccc3cc(C(=O)O)ccc3c2)cc1C12CC3CC(CC(C3)C1)C2 [adapalene, 6-(3-(1-adamantyl)-4-methoxyphenyl)-2-naphthoic acid]

Compound: O=C(OOC(=O)c1ccccc1)c1ccccc1 [benzoyl peroxide]
Solubility of benzoyl peroxide ([1]; solvent PEG 400): 39.6 mg/g
Solubility of benzoyl peroxide ([1]; solvent ethanol): 17.9 mg/g
Solubility of benzoyl peroxide ([1]; solvent glycerol): 0.15 mg/g
Solubility of benzoyl peroxide ([1]; solvent propylene glycol): 2.95 mg/g
Solubility of benzoyl peroxide ([1]; solvent propylene glycol/water (75:25)): 0.36 mg/g
Solubility of benzoyl peroxide ([1]; solvent water): 0.000155 mg/g
Decomposition of benzoyl peroxide in suspension ([2]; dispersed form in water and propylene glycol, storing for 90 days): not decomposed
Decomposition time of benzoyl peroxide ([2]; in PEG 400 (0.5 mg/g)): 1.4 days
Decomposition time of benzoyl peroxide ([2]; in ethanol): 29 days
Decomposition time of benzoyl peroxide ([2]; in propylene glycol): 53 days

Retinoid decomposing in presence of benzoyl peroxide formulation (2 hours): 50%
Retinoid decomposing in presence of benzoyl peroxide formulation (4 hours): 95%
Compound: CC1=C(/C=C/C(C)=C/C=C/C(C)=C/C(=O)O)C(C)(C)CCC1 [tretinoin]
